For test [1], the system named is TGF-b induced Endothelin-1 production. As to the kind of experiment: ET-1 assay: inhibitory effect on TGF-b induced endothelin-1 production. Format: cell-based. Conditions: Homo sapiens, Fibroblast; fibroblasts, stimulant (TGFb, serum, LPA etc), ET-1 in media by ELISA, 4-parameter fit. In outline:
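Fibroblasts (primary human lung/dermal, HFL-1, 3T3) serum-starved 0-48 h, preincubated ~30 min with compound, then stimulated (TGFb, serum or LPA) for 16-48 h. Secreted ET-1 measured by ELISA; EC50 from 4-parameter logistic fit, with CC50 from ATPlite in the same wells.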

Test [2] relates to Fibroblasts (primary human lung and dermal, HFL-1, 3T3 etc). As to the kind of experiment: Cell proliferation assay (BrdU incorporation). Format: cell-based. Conditions: HFL1, stimulant (LPA, TGFb, serum etc), 50% inhibition of the increase of BrdU incorporation. In outline:
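Serum-starved (24-48 h) fibroblasts pretreated with compound 0-30 min, then stimulated (LPA, TGFb, serum etc) for 16-24 h before BrdU, labelled a further 8 h. BrdU incorporation read by ELISA at 450 nm; IC50 taken as 50% inhibition of the stimulant-induced increase over unstimulated wells.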
(Uptake of a labelled nucleoside into DNA is a usual measure of proliferation.)

Turning to `CCOC(=O)Nc1cccc(-n2cc(-c3ccc(F)cc3)c(C)cc2=O)c1` [Compound 416], in test [1], the EC50 (usually the concentration that produces a half-maximal response) is below 50 µM. Besides, in test [2], the IC50 (usually the concentration at which inhibition is half-maximal) is below 50 µM.
As for `Cc1cc(=O)n(-c2ccc(OC(F)(F)F)cc2)cc1-c1c(C)nn(C)c1C` [Compound 237], in test [1], the EC50 fell in the range of 50 to 200 µM. Further, in test [2], the IC50 was below 50 µM.
With `Cc1ccc(=S)n(-c2ccc(OC(F)(F)F)cc2)c1` [Compound 333], in test [1], the EC50 lay within 50 to 200 µM. The compound also yielded an IC50 in test [2] above 200 µM.
In test [1], `Cc1cc(=O)n(-c2ccc(OC(F)(F)F)cc2)cc1-c1ccc2c(c1)OCC(=O)N2C` [Compound 425] displayed an EC50 below 50 µM. In addition, the IC50 in test [2] is below 50 µM.
Regarding `Cc1cc(-c2ccc(F)cc2)cn(-c2ccc(OC(F)(F)F)cc2)c1=O` [Compound 350], the EC50 in test [1] lay within 50 to 200 µM. The compound also had an IC50 in test [2] of 50 to 200 µM.
Turning to `O=c1ccc(-c2ccccc2)cn1-c1cncnc1` [Compound 300], the EC50 in test [1] is above 200 µM. This compound gave a half-maximal inhibitory concentration (IC50) in test [2] above 200 µM.
`O=c1c2[nH]ccc2c(-c2ccc(F)cc2)cn1-c1ccc(OC(F)(F)F)cc1` [Compound 591] registered an EC50 in test [1] below 50 µM. In test [2], the IC50 is above 200 µM.
In the same order, the values of `Cn1cc(-c2cn(-c3ccc(OC(F)(F)F)cc3)c(=O)c3[nH]ccc23)cn1` [Compound 603] are below 50 µM and below 50 µM.
In the same order, the values of `Cc1c(-c2ccc(=O)n(-c3ccc(OC(F)(F)F)cc3)c2)cnn1C` [Compound 391] are below 50 µM and 50 to 200 µM.
In turn, `Cn1cc(-c2cn(-c3ccc(OC(F)(F)F)cc3)c(=O)cc2C#N)cn1` [Compound 402] displayed an EC50 in test [1] below 50 µM. Besides, the half-inhibitory concentration (IC50) in test [2] is above 200 µM.
In the same order, the values of `Cc1cc(=O)n(-c2ccc(OC(F)(F)F)cc2)cc1-c1ccc2c(c1)NC(=O)CO2` [Compound 209] are below 50 µM and below 50 µM.
In the same order, the values of `CCn1nc2c(-c3cnn(C)c3)cn(-c3ccc(OCCOC)cc3)c(=O)c2n1` [Compound 688] are 50 to 200 µM and 50 to 200 µM.
The matching figures for `Cn1cc(-c2cn(-c3ccc(OC(F)(F)F)cc3)c(=O)c3c2ccn3C)cn1` [Compound 394]: below 50 µM and below 50 µM.
In test [1], `CCn1ccc2c(-c3cnn(C)c3)cn(-c3ccc(OC(F)(F)F)cc3)c(=O)c21` [Compound 60] showed an EC50 below 50 µM. In test [2], the IC50 is below 50 µM.
Turning to `CN1C(=O)COc2c(-c3ccc(F)cc3)cn(-c3ccc(OC(F)(F)F)cc3)c(=O)c21` [Compound 53], in test [1], the EC50 is above 200 µM. Also, in test [2], the IC50 was above 200 µM.
Compound `CCn1nnc2c(-c3ccc(F)cc3)cn(-c3ccc(OC(F)(F)F)cc3)c(=O)c21` [Compound 683] yielded an EC50 in test [1] below 50 µM. Moreover, in test [2], the half-inhibitory concentration (IC50) was below 50 µM.

The record behind these values is patent publication US10233195B2, “Anti-fibrotic pyridinones” (InterMune, Inc., priority 2014, dated 2019).
